Activity calls are given as the source filed them. The rule behind the calls is not given here. Bounds are passed on as bounds.

The subject of the first assay is Influenza A virus. Put plainly: Antiviral activity against Influenza virus A H3N2 at 100 uM. It is filed as functional, organism-based.
Settings: not given
With `C#C[C@@]1(O)[C@@H](CO)O[C@@H](n2cnc3c(OC)nc(OC)nc32)[C@@H]1O`, the result was inactive.
Same read-out and setting: the value for `C#C[C@@]1(O)[C@@H](CO)O[C@@H](n2cnc3c(N)nc(N)nc32)[C@@H]1O` was “inactive”.

Another assay relates to Influenza B virus. Description: Antiviral activity against Influenza virus B at 100 uM. It is filed as functional, organism-based.
Settings: not given
Turning to `C#C[C@@]1(O)[C@@H](CO)O[C@@H](n2cnc3c(OC)nc(OC)nc32)[C@@H]1O`, the result was inactive.
On the same count and under the same terms, the value for `C#C[C@@]1(O)[C@@H](CO)O[C@@H](n2cnc3c(N)nc(N)nc32)[C@@H]1O` was “inactive”.

The next assay concerns Mammalian orthoreovirus 1. Put plainly: Antiviral activity against Reovirus 1 at 100 uM.
Settings: not given
It is filed as functional.
On to `C#C[C@@]1(O)[C@@H](CO)O[C@@H](n2cnc3c(OC)nc(OC)nc32)[C@@H]1O`, for which the result was inactive.
On the same count and under the same terms, the result for `C#C[C@@]1(O)[C@@H](CO)O[C@@H](n2cnc3c(N)nc(N)nc32)[C@@H]1O` reads “inactive”.

In a further assay the test system is Punta Toro virus. Description: Antiviral activity against Punta Toro virus at 100 uM. It is filed as functional, organism-based.
Settings: not given
On to `C#C[C@@]1(O)[C@@H](CO)O[C@@H](n2cnc3c(OC)nc(OC)nc32)[C@@H]1O`, for which the outcome was inactive.
On the same count and under the same terms, the result for `C#C[C@@]1(O)[C@@H](CO)O[C@@H](n2cnc3c(N)nc(N)nc32)[C@@H]1O` reads “inactive”.

A further assay concerns Human immunodeficiency virus 1. Put plainly: Antiviral activity against HIV1 3B infected in human MT4 cells at 100 uM preincubated with cells for 30 mins followed by HIV inoculation measured after 4 to 5 days by microscopic analysis. The assay is classed as functional, organism-based.
Settings: not given
`C#C[C@@]1(O)[C@@H](CO)O[C@@H](n2cnc3c(OC)nc(OC)nc32)[C@@H]1O`: the result was inactive.
Still for that read-out and setting: the value for `C#C[C@@]1(O)[C@@H](CO)O[C@@H](n2cnc3c(N)nc(N)nc32)[C@@H]1O` was “inactive”.

The test system of a further assay is Human immunodeficiency virus 1. Put plainly: Antiviral activity against HIV 1 NL4-3 infected in human MT4 cells at 100 uM preincubated with cells for 30 mins followed by HIV inoculation measured after 4 to 5 days by microscopic analysis. The assay is classed as functional, organism-based.
Settings: not given
With `C#C[C@@]1(O)[C@@H](CO)O[C@@H](n2cnc3c(OC)nc(OC)nc32)[C@@H]1O`, the outcome was inactive.
Regarding `C#C[C@@]1(O)[C@@H](CO)O[C@@H](n2cnc3c(N)nc(N)nc32)[C@@H]1O`, the result was inactive.

Another assay relates to Human immunodeficiency virus 2. Description: Antiviral activity against HIV2 ROD infected in human MT4 cells at 100 uM preincubated with cells for 30 mins followed by HIV inoculation measured after 4 to 5 days by microscopic analysis. It is filed as functional, organism-based. Particulars: ISOLATE ROD.
For `C#C[C@@]1(O)[C@@H](CO)O[C@@H](n2cnc3c(OC)nc(OC)nc32)[C@@H]1O`, the result was inactive.
The same measure, in the same setting: the value for `C#C[C@@]1(O)[C@@H](CO)O[C@@H](n2cnc3c(N)nc(N)nc32)[C@@H]1O` was “inactive”.

A further assay concerns L1210. Description: Cytostatic activity against mouse L1210 cells after 48 hrs by Coulter counter method. The assay is classed as functional, cell-based. Particulars: L1210, 48 h.
Consider `C#C[C@@]1(O)[C@@H](CO)O[C@@H](n2cnc3c(OC)nc(OC)nc32)[C@@H]1O`, for which the half-maximal inhibitory concentration (IC50) (as a rule, the concentration needed to halve the response being measured) is greater than 250 µM.
In turn, `C#C[C@@]1(O)[C@@H](CO)O[C@@H](n2cnc3c(N)nc(N)nc32)[C@@H]1O` came in with an IC50 of 193 µM.

The next assay has as its system CCRF-CEM. Description: Cytostatic activity against human CEM cells after 72 hrs by Coulter counter method.
Settings: not given
It is filed as functional, cell-based.
For `C#C[C@@]1(O)[C@@H](CO)O[C@@H](n2cnc3c(OC)nc(OC)nc32)[C@@H]1O`, the IC50 was greater than 250 µM.
Still for that read-out and setting: the value for `C#C[C@@]1(O)[C@@H](CO)O[C@@H](n2cnc3c(N)nc(N)nc32)[C@@H]1O` was no less than 250 µM.

Another assay has as its system Sindbis virus. Description: Antiviral activity against Sindbis virus at 100 uM. It is filed as functional, organism-based.
Settings: not given
`C#C[C@@]1(O)[C@@H](CO)O[C@@H](n2cnc3c(OC)nc(OC)nc32)[C@@H]1O`: the result was inactive.
Still for that read-out and setting: the result for `C#C[C@@]1(O)[C@@H](CO)O[C@@H](n2cnc3c(N)nc(N)nc32)[C@@H]1O` reads “inactive”.

The subject of a further assay is HeLa. Description: Cytostatic activity against human HeLa cells after 72 hrs by Coulter counter method. The assay is classed as functional, cell-based.
Settings: not given
Compound `C#C[C@@]1(O)[C@@H](CO)O[C@@H](n2cnc3c(OC)nc(OC)nc32)[C@@H]1O` returned an IC50 greater than 250 µM.
On the same count and under the same terms, the value for `C#C[C@@]1(O)[C@@H](CO)O[C@@H](n2cnc3c(N)nc(N)nc32)[C@@H]1O` was 123 µM.

Another assay relates to Human alphaherpesvirus 1. Description: Antiviral activity against Aciclovir-resistant thymidine kinase-deficient HSV-1 KOS at 100 uM.
Settings: not given
The assay is classed as functional, organism-based.
Consider `C#C[C@@]1(O)[C@@H](CO)O[C@@H](n2cnc3c(OC)nc(OC)nc32)[C@@H]1O`, for which the result was inactive.
On the same count and under the same terms, the result for `C#C[C@@]1(O)[C@@H](CO)O[C@@H](n2cnc3c(N)nc(N)nc32)[C@@H]1O` reads “inactive”.

A further assay has as its system Human betaherpesvirus 5. Put plainly: Antiviral activity against Human cytomegalovirus AD169 at 100 uM.
Settings: not given
The assay is classed as functional, organism-based.
Regarding `C#C[C@@]1(O)[C@@H](CO)O[C@@H](n2cnc3c(OC)nc(OC)nc32)[C@@H]1O`, the outcome was inactive.
As for `C#C[C@@]1(O)[C@@H](CO)O[C@@H](n2cnc3c(N)nc(N)nc32)[C@@H]1O`, the outcome was inactive.

For a further assay, the system named is Human betaherpesvirus 5. Description: Antiviral activity against Human cytomegalovirus Davis at 100 uM. It is filed as functional, organism-based.
Settings: not given
In the case of `C#C[C@@]1(O)[C@@H](CO)O[C@@H](n2cnc3c(OC)nc(OC)nc32)[C@@H]1O`, the outcome was inactive.
Still for that read-out and setting: the value for `C#C[C@@]1(O)[C@@H](CO)O[C@@H](n2cnc3c(N)nc(N)nc32)[C@@H]1O` was “inactive”.

Another assay relates to Vesicular stomatitis virus. Description: Antiviral activity against VSV at 100 uM. The assay is classed as functional, organism-based.
Settings: not given
For `C#C[C@@]1(O)[C@@H](CO)O[C@@H](n2cnc3c(OC)nc(OC)nc32)[C@@H]1O`, the outcome was inactive.
Still for that read-out and setting: the value for `C#C[C@@]1(O)[C@@H](CO)O[C@@H](n2cnc3c(N)nc(N)nc32)[C@@H]1O` was “inactive”.

The next assay deals with Human alphaherpesvirus 1. Description: Antiviral activity against HSV-1 KOS at 100 uM.
Settings: not given
It is filed as functional, organism-based.
With `C#C[C@@]1(O)[C@@H](CO)O[C@@H](n2cnc3c(OC)nc(OC)nc32)[C@@H]1O`, the outcome was inactive.
Still for that read-out and setting: the value for `C#C[C@@]1(O)[C@@H](CO)O[C@@H](n2cnc3c(N)nc(N)nc32)[C@@H]1O` was “inactive”.

Another assay concerns Human alphaherpesvirus 2. Put plainly: Antiviral activity against HSV-2 lyons at 100 uM. It is filed as functional, organism-based.
Settings: not given
In the case of `C#C[C@@]1(O)[C@@H](CO)O[C@@H](n2cnc3c(OC)nc(OC)nc32)[C@@H]1O`, the outcome was inactive.
Still for that read-out and setting: the result for `C#C[C@@]1(O)[C@@H](CO)O[C@@H](n2cnc3c(N)nc(N)nc32)[C@@H]1O` reads “inactive”.

Another assay deals with Human alphaherpesvirus 2. Description: Antiviral activity against HSV-2 G at 100 uM. It is filed as functional, organism-based. Particulars: strain G.
As for `C#C[C@@]1(O)[C@@H](CO)O[C@@H](n2cnc3c(OC)nc(OC)nc32)[C@@H]1O`, the result was inactive.
Still for that read-out and setting: the value for `C#C[C@@]1(O)[C@@H](CO)O[C@@H](n2cnc3c(N)nc(N)nc32)[C@@H]1O` was “inactive”.

The test system of a further assay is Human adenovirus 2. Put plainly: Antiviral activity against Adenovirus 2 at 100 uM. It is filed as functional, organism-based.
Settings: not given
For the compound `C#C[C@@]1(O)[C@@H](CO)O[C@@H](n2cnc3c(OC)nc(OC)nc32)[C@@H]1O`, the result was inactive.
With `C#C[C@@]1(O)[C@@H](CO)O[C@@H](n2cnc3c(N)nc(N)nc32)[C@@H]1O`, the result was inactive.

The subject of a further assay is Respiratory syncytial virus. Description: Antiviral activity against Respiratory syncytial virus long at 100 uM. It is filed as functional, organism-based.
Settings: not given
In the case of `C#C[C@@]1(O)[C@@H](CO)O[C@@H](n2cnc3c(OC)nc(OC)nc32)[C@@H]1O`, the outcome was inactive.
The same measure, in the same setting: the value for `C#C[C@@]1(O)[C@@H](CO)O[C@@H](n2cnc3c(N)nc(N)nc32)[C@@H]1O` was “inactive”.

For another assay, the system named is Coxsackievirus B4. Description: Antiviral activity against Coxsackie B4 virus at 100 uM. It is filed as functional, organism-based.
Settings: not given
As to `C#C[C@@]1(O)[C@@H](CO)O[C@@H](n2cnc3c(OC)nc(OC)nc32)[C@@H]1O`, the outcome was inactive.
Same read-out and setting: the value for `C#C[C@@]1(O)[C@@H](CO)O[C@@H](n2cnc3c(N)nc(N)nc32)[C@@H]1O` was “inactive”.

The next assay concerns Human respirovirus 3. Description: Antiviral activity against parainfluenza virus 3 at 100 uM. It is filed as functional, organism-based.
Settings: not given
As to `C#C[C@@]1(O)[C@@H](CO)O[C@@H](n2cnc3c(OC)nc(OC)nc32)[C@@H]1O`, the outcome was inactive.
Still for that read-out and setting: the result for `C#C[C@@]1(O)[C@@H](CO)O[C@@H](n2cnc3c(N)nc(N)nc32)[C@@H]1O` reads “inactive”.

Another assay relates to Influenza A virus. Put plainly: Antiviral activity against Influenza virus A H1N1 at 100 uM. The assay is classed as functional, organism-based.
Settings: not given
Consider `C#C[C@@]1(O)[C@@H](CO)O[C@@H](n2cnc3c(OC)nc(OC)nc32)[C@@H]1O`, for which the result was inactive.
Regarding `C#C[C@@]1(O)[C@@H](CO)O[C@@H](n2cnc3c(N)nc(N)nc32)[C@@H]1O`, the outcome was inactive.

Source of the values: ChEMBL document CHEMBL3785043, “Exploring the purine core of 3'-C-ethynyladenosine (EAdo) in search of novel nucleoside therapeutics” (Bioorg Med Chem Lett, 2016).
